Measured values: ChEMBL document CHEMBL3046756, “Synthesis, anti-inflammatory, and structure antioxidant activity relationship of novel 4-quinazoline” (Med Chem Res, 2013)
The source made the active and inactive calls. The calls are words filed in the database; no cut-off is given here.

Key:
Rattus norvegicus [1] = experiment: Antipyretic activity in Wistar Rattus norvegicus (rat) assessed as decrease in Brewer's yeast solution-induced hyperthermia at 150 mg/kg, po measured after 2 hr (reference value: 37 +/- 1.7 degC); type: functional
Mus musculus [2] = experiment: Toxicity in albino Mus musculus (mouse) assessed as change in skin color at 150 to 900 mg/kg, ip measured within 24 hr; type: organism-based; parameters: dose 150-900 mg/kg, route intraperitoneal; details: in vivo
Rattus norvegicus [3] = experiment: Anti-inflammatory activity in Wistar Rattus norvegicus (rat) assessed as inhibition of carrageenan-induced paw edema at 100 mg/kg, po administered 30 min prior to carrageenan challenge measured at 90 min relative to untreated control; type: functional
Rattus norvegicus [4] = experiment: Anti-inflammatory activity in Wistar Rattus norvegicus (rat) assessed as inhibition of carrageenan-induced paw edema at 50 mg/kg, po administered 30 min prior to carrageenan challenge measured at 90 min relative to untreated control; type: functional
Rattus norvegicus [5] = experiment: Anti-inflammatory activity in Wistar Rattus norvegicus (rat) assessed as inhibition of carrageenan-induced paw edema at 100 mg/kg, po administered 30 min prior to carrageenan challenge measured at 60 min relative to untreated control; type: functional
Rattus norvegicus [6] = experiment: Anti-inflammatory activity in Wistar Rattus norvegicus (rat) assessed as inhibition of carrageenan-induced paw edema at 100 mg/kg, po administered 30 min prior to carrageenan challenge measured at 30 min post carrageenan challenge relative to untreated control; type: functional
Rattus norvegicus [7] = experiment: Antipyretic activity in Wistar Rattus norvegicus (rat) assessed as decrease in Brewer's yeast solution-induced hyperthermia at 50 mg/kg, po measured after 1 hr (reference value: 37 +/- 3.55 degC); type: functional
Rattus norvegicus [8] = experiment: Anti-inflammatory activity in Wistar Rattus norvegicus (rat) assessed as inhibition of carrageenan-induced paw edema at 50 mg/kg, po administered 30 min prior to carrageenan challenge measured at 180 min relative to untreated control; type: functional
Rattus norvegicus [9] = experiment: Anti-inflammatory activity in Wistar Rattus norvegicus (rat) assessed as inhibition of carrageenan-induced paw edema at 100 mg/kg, po administered 30 min prior to carrageenan challenge measured at 120 min relative to untreated control; type: functional
Rattus norvegicus [10] = experiment: Anti-inflammatory activity in Wistar Rattus norvegicus (rat) assessed as inhibition of carrageenan-induced paw edema at 50 mg/kg, po administered 30 min prior to carrageenan challenge measured at 120 min relative to untreated control; type: functional
[11] = system: Radical scavenging activity; experiment: Antioxidant activity assessed as DPPH free radical scavenging activity at 6 mg/ml after 5 to 60 min by spectrophotometric analysis; type: functional
[12] = Antioxidant activity assessed as reduction of Fe3+ to Fe2+ at 20 to 120 ug/ml after 30 min by spectrophotometric analysis; type: functional
Rattus norvegicus [13] = experiment: Effect on GST level in Wistar Rattus norvegicus (rat) liver measured CDNB conjugated per min per mg of protein at 150 mg/kg, po after 10 days (reference value: 0.86 +/- 0.08 mmol); type: functional
Rattus norvegicus [14] = experiment: Effect on GST level in Wistar Rattus norvegicus (rat) liver measured CDNB conjugated per min per mg of protein at 100 mg/kg, po after 10 days (reference value: 0.86 +/- 0.08 mmol); type: functional
Rattus norvegicus [15] = experiment: Effect on GST level in Wistar Rattus norvegicus (rat) liver measured CDNB conjugated per min per mg of protein at 50 mg/kg, po after 10 days (reference value: 0.86 +/- 0.08 mmol); type: functional
Rattus norvegicus [16] = experiment: Effect on gamma-glutamyl transferase level in Wistar Rattus norvegicus (rat) serum at 100 mg/kg, po qd after 10 days (reference value: 0.57 +/- 0.04 U/I); type: functional
Rattus norvegicus [17] = experiment: Effect on ALP level in Wistar Rattus norvegicus (rat) serum at 150 mg/kg, po qd after 10 days (reference value: 39.5 +/- 3.86 U/I); type: functional
Rattus norvegicus [18] = experiment: Effect on SGPT level in Wistar Rattus norvegicus (rat) at 150 mg/kg, po qd after 10 days (reference value: 38.77 +/- 4.25 U/I); type: functional
Rattus norvegicus [19] = experiment: Effect on SGPT level in Wistar Rattus norvegicus (rat) at 100 mg/kg, po qd after 10 days (reference value: 38.77 +/- 4.25 U/I); type: functional
Rattus norvegicus [20] = experiment: Effect on SGPT level in Wistar Rattus norvegicus (rat) at 50 mg/kg, po qd after 10 days (reference value: 38.77 +/- 4.25 U/I); type: functional
Rattus norvegicus [21] = experiment: Effect on SGOT level in Wistar Rattus norvegicus (rat) at 100 mg/kg, po qd after 10 days (reference value: 145.50 +/- 13.86 U/I); type: functional
Mus musculus [22] = experiment: Toxicity in albino Mus musculus (mouse) assessed as change in toes color at 150 to 900 mg/kg, ip measured within 24 hr; type: organism-based; parameters: dose 150-900 mg/kg, route intraperitoneal; details: in vivo
Rattus norvegicus [23] = experiment: Effect on glutathione peroxidase level in Wistar Rattus norvegicus (rat) liver measured GSH oxidized per min per mg of protein at 150 mg/kg, po after 10 days (reference value: 47.47 +/- 3.86 mmol); type: functional
Rattus norvegicus [24] = experiment: Effect on glutathione peroxidase level in Wistar Rattus norvegicus (rat) liver measured GSH oxidized per min per mg of protein at 50 mg/kg, po after 10 days (reference value: 47.47 +/- 3.86 mmol); type: functional
Rattus norvegicus [25] = experiment: Effect on GSH level in Wistar Rattus norvegicus (rat) liver measured per mg of protein at 100 mg/kg, po after 10 days (reference value: 1.84 +/- 0.092 mg); type: functional
Rattus norvegicus [26] = experiment: Effect on GSH level in Wistar Rattus norvegicus (rat) liver measured per mg of protein at 50 mg/kg, po after 10 days (reference value: 1.84 +/- 0.092 mg); type: functional
Rattus norvegicus [27] = experiment: Effect on LDH level in Wistar Rattus norvegicus (rat) serum at 150 mg/kg, po qd after 10 days (reference value: 249.89 +/- 13.26 U/I); type: functional
Rattus norvegicus [28] = experiment: Effect on glutathione reductase level in Wistar Rattus norvegicus (rat) liver measured NADPH oxidized per min per mg of protein at 150 mg/kg, po after 10 days (reference value: 4.19 +/ 0.42 nmol); type: functional
Mus musculus [29] = experiment: Toxicity in albino Mus musculus (mouse) assessed as change in toes color at 650 to 1800 mg/kg, ip measured within 24 hr; type: organism-based; parameters: dose 650-1800 mg/kg, route intraperitoneal; details: in vivo
Mus musculus [30] = experiment: Toxicity in albino Mus musculus (mouse) assessed as tremor in hind limbs at 650 to 1800 mg/kg, ip measured within 24 hr; type: organism-based, Hindlimb; parameters: dose 650-1800 mg/kg, route intraperitoneal; details: in vivo
Mus musculus [31] = experiment: Toxicity in albino Mus musculus (mouse) assessed as rapid respiration at 650 to 1800 mg/kg, ip measured within 1 to 2 hr; type: organism-based; parameters: route intraperitoneal; details: in vivo
Mus musculus [32] = experiment: Toxicity in albino Mus musculus (mouse) assessed as increase in heart rate at 650 to 1800 mg/kg, ip measured within 1 to 2 hr; type: organism-based; parameters: route intraperitoneal; details: in vivo
[33] = Antioxidant activity assessed as inhibition of linoleic acid peroxidation at 100 mg/l after 24 hr by spectrophotometric analysis; type: functional
Mus musculus [34] = experiment: Toxicity in albino Mus musculus (mouse) assessed as change in temperature at extremities at 650 to 1800 mg/kg, ip measured within 24 hr; type: organism-based; parameters: dose 650-1800 mg/kg, route intraperitoneal; details: in vivo

Compound	T (Rattus norvegicus [1]) [°C]	inhibition in vivo at 100 mg/kg (Rattus norvegicus [3]) [%]	inhibition in vivo at 50 mg/kg (Rattus norvegicus [4]) [%]	inhibition in vivo at 100 mg/kg (Rattus norvegicus [5]) [%]	inhibition in vivo at 100 mg/kg (Rattus norvegicus [6]) [%]	T (Rattus norvegicus [7]) [°C]	inhibition in vivo at 50 mg/kg (Rattus norvegicus [8]) [%]	inhibition in vivo at 100 mg/kg (Rattus norvegicus [9]) [%]	inhibition in vivo at 50 mg/kg (Rattus norvegicus [10]) [%]	Activity [11]	Activity [12]	Activity (Rattus norvegicus [13]) [mmol]	Activity (Rattus norvegicus [14]) [mmol]	Activity (Rattus norvegicus [15]) [mmol]	Activity (Rattus norvegicus [16]) [U/L]	Activity (Rattus norvegicus [17]) [U/L]	Activity (Rattus norvegicus [18]) [U/L]	Activity (Rattus norvegicus [19]) [U/L]	Activity (Rattus norvegicus [20]) [U/L]	Activity (Rattus norvegicus [21]) [U/L]	also measured
O=c1c2ccccc2nc2n1NC(c1ccc(O)c(O)c1)C2 (stereo not given)	37	45.9	39.5	38	4.58	37.6	47	54.7	53.7	Active	Active	1.34	1.15	0.97	0.51	37.58	33.26	36.15	41.97	136.34	Activity (Mus musculus [2]): Toxic; Activity (Mus musculus [22]): Toxic; Activity (Rattus norvegicus [23]): 53.45 mmol; Activity (Rattus norvegicus [24]): 49.25 mmol; Activity (Rattus norvegicus [25]): 1.85 mg; Activity (Rattus norvegicus [26]): 1.8 mg; Activity (Rattus norvegicus [27]): 238.21 U/L; Activity (Rattus norvegicus [28]): 5.14 nmol
COC(=O)c1ccccc1NC(=O)/C=C/c1ccc(O)c(O)c1	36.5	49.3	53.1	45.4	26.8	37.7	65.3	64.3	63.8	Active	Active	1.97	1.54	1.3	0.51	31.17	40.84	43.21	42.47	133.79	Activity (Mus musculus [29]): Toxic; Activity (Mus musculus [30]): Toxic; Activity (Mus musculus [31]): Toxic; Activity (Mus musculus [32]): Toxic; inhibition [33]: Active; Activity (Mus musculus [34]): Toxic; Activity (Rattus norvegicus [23]): 57.89 mmol; Activity (Rattus norvegicus [24]): 49.11 mmol; Activity (Rattus norvegicus [25]): 2.39 mg; Activity (Rattus norvegicus [26]): 1.94 mg; Activity (Rattus norvegicus [27]): 232.48 U/L; Activity (Rattus norvegicus [28]): 6.36 nmol
